Data taken from ChEMBL document CHEMBL3396969, “Reemergence of chloroquine (CQ) analogs as multi-targeting antimalarial agents: a review” (Eur J Med Chem, 2015).
Each block holds one compound with its values, some of them ahead of it.

Tests used:
Plasmodium falciparum [1] = assay: Antimicrobial activity against chloroquine-sensitive Plasmodium falciparum 3D7; type: functional, organism-based
Plasmodium falciparum [2] = assay: Antimicrobial activity against Plasmodium falciparum Dd2; type: functional
Plasmodium falciparum [3] = assay: Antimicrobial activity against chloroquine-resistant Plasmodium falciparum K1; type: functional, organism-based
Plasmodium falciparum [4] = assay: Antimicrobial activity against chloroquine-sensitive Plasmodium falciparum 3D7 infected in human erythrocytes after 72 hrs by SYBR green I fluorescence-based method; type: functional, organism-based; conditions: 3D7, 72 h
Plasmodium falciparum [5] = assay: Antimicrobial activity against chloroquine/SP-resistant Plasmodium falciparum W2 infected in human erythrocytes after 72 hrs by SYBR green I fluorescence-based method; type: functional, organism-based; conditions: W2, 72 h
Plasmodium falciparum [6] = assay: Antimicrobial activity against Mq-resistant Plasmodium falciparum D6 infected in human erythrocytes after 72 hrs by SYBR green I fluorescence-based method; type: functional, organism-based; conditions: D6, 72 h
Plasmodium falciparum [7] = assay: Antimicrobial activity against chloroquine/MQ/atrovaquone-resistant Plasmodium falciparum TM90C2B infected in human erythrocytes after 72 hrs by SYBR green I fluorescence-based method; type: functional, organism-based
Plasmodium falciparum [8] = assay: Antimicrobial activity against Plasmodium falciparum Thai6 infected in human erythrocytes after 72 hrs by SYBR green I fluorescence-based method; type: functional, organism-based; conditions: Thai6, 72 h
Plasmodium falciparum [9] = assay: Antimicrobial activity against Plasmodium falciparum Cam6 infected in human erythrocytes after 72 hrs by SYBR green I fluorescence-based method; type: functional, organism-based; conditions: Cam6, 72 h
Plasmodium falciparum [10] = assay: Antimicrobial activity against Plasmodium falciparum D6 infected in human erythrocytes after 72 hrs by SYBR green I fluorescence-based method; type: functional, organism-based; conditions: D6, 72 h
Plasmodium falciparum [11] = assay: Antimicrobial activity against Plasmodium falciparum Dd2 infected in human erythrocytes after 72 hrs by SYBR green I fluorescence-based method; type: functional, cell-based; conditions: Dd2, 72 h
Plasmodium falciparum [12] = assay: Antimicrobial activity against Plasmodium falciparum 7G8 infected in human erythrocytes after 72 hrs by SYBR green I fluorescence-based method; type: functional, cell-based; conditions: 7G8, 72 h
Plasmodium falciparum [13] = assay: Antimicrobial activity against chloroquine-resistant Plasmodium falciparum W2 infected in human erythrocytes assessed as incorporation of [3H]-hypoxanthine by beta counting analysis; type: functional, organism-based
[14] = Inhibition of beta-hematin formation; type: physicochemical

SMILES: COc1cc(NC(C)CCCNc2ccnc3cc(Cl)ccc23)c2ncccc2c1 (stereo not drawn)
- IC50 (Plasmodium falciparum [1]): 80 nM
- IC50 (Plasmodium falciparum [2]): 80 nM
- IC50 (Plasmodium falciparum [3]): 80 nM

SMILES: CC(C)(N)CNc1ccnc2cc(Cl)ccc12
- IC50 (Plasmodium falciparum [4]): 5.52 nM
- IC50 (Plasmodium falciparum [5]): 5.52 nM
- IC50 (Plasmodium falciparum [6]): 5.52 nM
- IC50 (Plasmodium falciparum [7]): 5.52 nM
- IC50 (Plasmodium falciparum [8]): 5.52 nM
- IC50 (Plasmodium falciparum [9]): 5.52 nM

SMILES: CN(C)C(C)(C)CNc1ccnc2cc(Cl)ccc12
- IC50 (Plasmodium falciparum [4]): 5.52 nM
- IC50 (Plasmodium falciparum [5]): 5.52 nM
- IC50 (Plasmodium falciparum [6]): 5.52 nM
- IC50 (Plasmodium falciparum [7]): 5.52 nM
- IC50 (Plasmodium falciparum [8]): 5.52 nM
- IC50 (Plasmodium falciparum [9]): 5.52 nM

- IC50 (Plasmodium falciparum [10]): 0.9 nM
- IC50 (Plasmodium falciparum [11]): 0.9 nM
- IC50 (Plasmodium falciparum [12]): 0.9 nM
SMILES: CCN(CC)CCNc1c(C)cnc2cc(Cl)ccc12

SMILES: NCCNCCNc1ccnc2cc(Cl)ccc12
- IC50 (Plasmodium falciparum [13]): 60 nM

- IC50 [14]: 27900 nM
SMILES: CCN(CC)CCCC(C)Nc1ccnc2cc(Cl)ccc12 (stereo not drawn) [CHLOROQUINE]

SMILES: COc1cc(NC(C)CCCN)c2ncccc2c1 (stereo not drawn) [PRIMAQUINE]
- IC50 (Plasmodium falciparum [1]): 460 nM
- IC50 (Plasmodium falciparum [2]): 460 nM
- IC50 (Plasmodium falciparum [3]): 460 nM
